Experimental data: patent US8198311B2, “Modulators of glucocorticoid receptor, AP-1, and/or NF-κB activity and use thereof” (Bristol-Myers Squibb Company, priority 2006, dated 2012)
Read-outs that look alike come from different tables or passages of the source.

What was measured:
[1] = test system: AP-1 induced transcriptional activity; assay: Cellular Transrepressional Assay (AP-1 luciferase reporter in A549 cells, PMA-activated); assay type: cell-based; conditions: pAP-1-Luc, 10 ng/ml PMA, read-out: AP-1 (EC50, nM) (Cellular Transrepression Assay)
Protocol: To measure the ability of test molecules to inhibit AP-1 induced transcriptional activity an A549 cell was utilized which was stably transfected with a plasmid containing 7×AP-1 DNA binding sites (pAP-1-Luc plasmid, Stratagene Co. La Jolla, Calif.) followed by the gene for luciferase. Cells were activated with 10 ng/ml of phorbol myristic acid (PMA) plus or minus test molecules for 7 hours. After 7 hours a luciferase reagent was added to measure luciferase enzymatic activity in the cell. After a 10 minute incubation of luciferase reagent with cells, luminescence was measured in a TopCount luminescence counter. Repression of AP-1 activity was calculated as the percentage decrease in the signal induced by PMA alone. Test molecules were analyzed in the concentration range from 0.1 nM to 40 μM. EC50s were determined by using standard curve fitting methods such as Excel fit (Microsoft Co.).

[2] = target: T1, human glucocorticoid receptor (Homo sapiens, UniProt P04150); assay: Glucocorticoid Receptor Binding Assay (I), fluorescence polarization competitor kit (Fluormone GS Red); conditions: purified human recombinant full-length GR
T1 construct: purified human recombinant full-length glucocorticoid receptor (2 nM); purchased Invitrogen Part # 2893
T1 sequence (P04150 1-777): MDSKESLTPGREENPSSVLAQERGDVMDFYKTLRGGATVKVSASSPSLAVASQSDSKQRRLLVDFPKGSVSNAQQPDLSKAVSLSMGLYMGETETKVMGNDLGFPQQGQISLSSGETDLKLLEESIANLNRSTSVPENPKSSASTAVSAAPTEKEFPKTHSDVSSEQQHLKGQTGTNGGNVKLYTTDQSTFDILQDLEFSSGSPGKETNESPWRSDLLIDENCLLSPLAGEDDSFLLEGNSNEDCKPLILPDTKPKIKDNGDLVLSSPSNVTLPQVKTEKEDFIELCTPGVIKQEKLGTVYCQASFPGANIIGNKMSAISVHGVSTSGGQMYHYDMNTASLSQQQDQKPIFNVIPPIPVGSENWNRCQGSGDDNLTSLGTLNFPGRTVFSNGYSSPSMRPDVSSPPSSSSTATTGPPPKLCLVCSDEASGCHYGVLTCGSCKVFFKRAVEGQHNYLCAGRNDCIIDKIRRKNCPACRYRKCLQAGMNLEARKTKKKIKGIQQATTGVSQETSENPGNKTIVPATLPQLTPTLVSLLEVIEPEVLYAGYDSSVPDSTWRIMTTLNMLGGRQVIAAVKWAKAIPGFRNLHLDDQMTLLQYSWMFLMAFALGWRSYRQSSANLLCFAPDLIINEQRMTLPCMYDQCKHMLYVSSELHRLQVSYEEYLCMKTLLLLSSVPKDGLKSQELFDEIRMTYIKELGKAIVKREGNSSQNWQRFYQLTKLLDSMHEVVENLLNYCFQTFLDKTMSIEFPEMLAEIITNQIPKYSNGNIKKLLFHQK
Protocol: In order to assess the affinity of test compounds for the human glucocorticoid receptor, a commercially available kit was used (Glucocorticoid Receptor Competitor Assay Kit, Invitrogen Part # 2893). Briefly, purified human recombinant full-length glucocorticoid receptor (2 nM) was mixed with fluorescently labeled glucocorticoid (1 nM Fluormone GS Red) in the presence or absence of test compound. After two hour incubation at room temperature in the dark, the fluorescence polarization (FP) of the samples was measured. […] Test compounds were analyzed in the concentration range from 8.5E-05 μM to 5 μM.

SMILES	EC50 ([1]; 7 hours)	Ki [2]	EC50 ([1]; Homo sapiens, A549, 7 h)
CC(CNC(=O)CC(F)(F)F)C(c1ccccc1)c1ccc2c(cnn2-c2ccc(F)cc2)c1 (single isomer, unassigned) [Example 90A, 3,3,3-trifluoro-N-(3-(1-(4-fluorophenyl)-1H-indazol-5-yl)-2-methyl-3-phenylpropyl)propanamide]	52 nM	2.3 nM	–
CCNC(=O)NCC(C)(C)C(C)(C)c1ccc2c(cnn2-c2ccc(F)cc2)c1 [Example 117, 1-ethyl-3-(3-(1-(4-fluorophenyl)-1H-indazol-5-yl)-2,2,3-trimethylbutyl)urea]	–	20 nM	> 10000 nM
CC(C)CC(c1ccc2c(cnn2-c2ccc(F)cc2)c1)C(C)(C)CNC(=O)NC(C)(C)C(=O)Nc1ccccc1 (stereo not drawn) [Example 56, 2-(3-(3-(1-(4-fluorophenyl)-1H-indazol-5-yl)-2,2,5-trimethylhexyl)ureido)-2-methyl-N-phenylpropanamide]	–	6.1 nM	80 nM
Cc1cc(C(C)(C)NC(=O)NCC(C)(C)C(CC(C)C)c2ccc3c(cnn3-c3ccc(F)cc3)c2)ccn1 (stereo not drawn) [Example 53, 1-(3-(1-(4-fluorophenyl)-1H-indazol-5-yl)-2,2,5-trimethylhexyl)-3-(2-(2-methylpyridin-4-yl)propan-2-yl)urea]	–	1.8 nM	306 nM
CC(C)CC(c1ccc2c(cnn2-c2ccc(F)cc2)c1)C(C)(C)CNC(=O)NC1CCN(Cc2ccccc2)CC1 (stereo not drawn) [Example 79, 1-(1-benzylpiperidin-4-yl)-3-(3-(1-(4-fluorophenyl)-1H-indazol-5-yl)-2,2,5-trimethylhexyl)urea]	–	11 nM	5000 nM
CC(C)CC(c1ccc2c(cnn2-c2ccc(F)cc2)c1)C(C)(C)CNC(=O)OCC(C)(C)C (stereo not drawn) [Example 62, neopentyl 3-(1-(4-fluorophenyl)-1H-indazol-5-yl)-2,2,5-trimethylhexylcarbamate]	–	11 nM	> 10000 nM
CC(C)C(c1ccc2c(cnn2-c2ccc(F)cc2)c1)C(C)(C)CNC(=O)NC(C)(C)C (stereo not drawn) [Example 103, 1-tert-butyl-3-(3-(1-(4-fluorophenyl)-1H-indazol-5-yl)-2,2,4-trimethylpentyl)urea]	–	5.9 nM	349 nM
CC(CNS(=O)(=O)CC(F)(F)F)C(c1ccccc1)c1ccc2c(cnn2-c2ccc(F)cc2)c1 (single isomer, unassigned) [Example 91C, 2,2,2-trifluoro-N-(3-(1-(4-fluorophenyl)-1H-indazol-5-yl)-2-methyl-3-phenylpropyl)ethanesulfonamide]	83 nM	2.8 nM	–
CC(C)NC(=O)NCC(C)(C)C(C)(C)c1ccc2c(cnn2-c2ccc(F)cc2)c1 [Example 118, 1-(3-(1-(4-fluorophenyl)-1H-indazol-5-yl)-2,2,3-trimethylbutyl)-3-isopropylurea]	–	29 nM	2800 nM
CC(C)CC(c1ccc2c(cnn2-c2ccc(F)cc2)c1)C(C)(C)CNC(=O)N[C@H](C)c1cccc2ccccc12 (stereo partly drawn) [Example 75, 1-(3-(1-(4-fluorophenyl)-1H-indazol-5-yl)-2,2,5-trimethylhexyl)-3-((R)-1-(naphthalene-1-yl)ethyl)urea]	–	8.9 nM	628 nM
CC(C)CC(c1ccc2c(cnn2-c2ccc(F)cc2)c1)C(C)(C)CNC(=O)NC(CO)CO (stereo not drawn) [Example 46, 1-(1,3-dihydroxypropan-2-yl)-3-(3-(1-(4-fluorophenyl)-1H-indazol-5-yl)-2,2,5-trimethylhexyl)urea]	–	1.5 nM	6050 nM
CC(C)CC(c1ccc2c(cnn2-c2ccc(F)cc2)c1)C(C)(C)CNC(=O)NC(C)(C)c1ccnc(C(C)(C)C)c1 (stereo not drawn) [Example 64, 1-(2-(2-tert-butylpyridin-4-yl)propan-2-yl)-3-(3-(1-(4-fluorophenyl)-1H-indazol-5-yl)-2,2,5-trimethylhexyl)urea]	–	17 nM	> 10000 nM
CC(C)CC(c1ccc2c(cnn2-c2ccc(F)cc2)c1)C(C)(C)CNC(=O)N[C@@H](C)C(C)(C)C (stereo partly drawn) [Example 77, 1-((S)-3,3-dimethylbutan-2-yl)-3-(3-(1-(4-fluorophenyl)-1H-indazol-5-yl)-2,2,5-trimethylhexyl)urea]	–	7.4 nM	143 nM
CC(C)(CNC(=O)Nc1nccs1)C(C)(C)c1ccc2c(cnn2-c2ccc(F)cc2)c1 [Example 115, 1-(3-(1-(4-Fluorophenyl)-1H-indazol-5-yl)-2,2,3-trimethylbutyl)-3-(thiazol-2-yl)urea]	–	16 nM	> 10000 nM
Cc1cc(C)c(S(=O)(=O)NCC(C)(C)C(CC(C)C)c2ccc3c(cnn3-c3ccc(F)cc3)c2)c(C)c1 (stereo not drawn) [Example 81, N-(3-(1-(4-fluorophenyl)-1H-indazol-5-yl)-2,2,5-trimethylhexyl)-2,4,6-trimethylbenzenesulfonamide]	–	8.7 nM	> 5000 nM
CC(CNC(=O)CC(F)(F)F)C(c1ccccc1)c1ccc2c(cnn2-c2ccc(F)cc2)c1 (single isomer, unassigned) [Example 90C, 3,3,3-trifluoro-N-(3-(1-(4-fluorophenyl)-1H-indazol-5-yl)-2-methyl-3-phenylpropyl)propanamide]	7.4 nM	2.4 nM	–
CC(C)(C)NC(=O)NCC(C)(C)C(CC1CC1)c1ccc2c(cnn2-c2ccc(F)cc2)c1 (stereo not drawn) [Example 108, 1-tert-Butyl-3-(4-cyclopropyl-3-(1-(4-fluorophenyl)-1H-indazol-5-yl)-2,2-dimethylbutyl)urea]	–	1.7 nM	8.1 nM
CCCC(c1ccc2c(cnn2-c2ccc(F)cc2)c1)C(C)(C)CNC(=O)NC(C)(C)C (stereo not drawn) [Example 104, 1-tert-butyl-3-(3-(1-(4-fluorophenyl)-1H-indazol-5-yl)-2,2-dimethylhexyl)urea]	–	2.1 nM	23 nM
CC(C)CC(c1ccc2c(cnn2-c2ccc(F)cc2)c1)C(C)(C)CNC(=O)NC1(C)CCS(=O)(=O)C1 (stereo not drawn) [Example 38]	–	6.3 nM	> 10000 nM
CC(C)CC(c1ccc2c(cnn2-c2ccc(F)cc2)c1)C(C)(C)CNC(=O)NC1CCOCC1 (stereo not drawn) [Example 37, 1-(3-(1-(4-fluorophenyl)-1H-indazol-5-yl)-2,2,5-trimethylhexyl)-3-(tetrahydro-2H-pyran-4-yl)urea]	–	5.8 nM	> 10000 nM
CC(CNC(=O)NC(C)(C)C)C(c1ccccc1)c1ccc2c(cnn2-c2ccc(F)cc2)c1 (single isomer, unassigned) [Example 97B, 1-tert-butyl-3-(3-(1-(4-fluorophenyl)-1H-indazol-5-yl)-2-methyl-3-phenylpropyl)urea]	136 nM	43 nM	–
CC(C)(C)NC(=O)NCC(C)(C)C(c1ccc2c(cnn2-c2ccc(F)cc2)c1)C1CC1 (stereo not drawn) [Example 102, 1-tert-butyl-3-(3-cyclopropyl-3-(1-(4-fluorophenyl)-1H-indazol-5-yl)-2,2-dimethylpropyl)urea]	–	8.4 nM	691 nM
CC(C)(CNC(=O)Nc1ccccn1)C(C)(C)c1ccc2c(cnn2-c2ccc(F)cc2)c1 [Example 116, 1-(3-(1-(4-fluorophenyl)-1H-indazol-5-yl)-2,2,3-trimethylbutyl)-3-(pyridin-2-yl)urea]	–	177 nM	> 10000 nM
CC(C)CC(c1ccc2c(cnn2-c2ccc(F)cc2)c1)C(C)(C)CNC(=O)C(=O)C(C)(C)C (stereo not drawn) [Example 67, N-(3-(1-(4-fluorophenyl)-1H-indazol-5-yl)-2,2,5-trimethylhexyl)-3,3-dimethyl-2-oxobutanamide]	–	5.6 nM	164 nM
